Data published in ChEMBL document CHEMBL1201862, “PubChem BioAssay data set” (2004).
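A five-concentration, 48-hour dose response in 96-well plates underlies each endpoint, interpolated linearly between surrounding concentrations. GI50: concentration for 50% inhibition of growth.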 Calls of active or inactive are those of the source. No stated cut-off is given here; in the data, active = GI50 up to about 1.1 µM and inactive = higher.

What was measured:
Assay in all cases: growth of human tumour cells (NCI), 48 h
786-0 = test system: 786-0
A498 = test system: A498
A549 = test system: A549
ACHN = test system: ACHN
BT-549 = test system: BT-549
CAKI-1 = test system: CAKI-1
CCRF-CEM = test system: CCRF-CEM
COLO 205 = test system: COLO 205
DU-145 = test system: DU-145
EKVX = test system: EKVX
HCC 2998 = test system: HCC 2998
HCT-116 = test system: HCT-116
HCT-15 = test system: HCT-15
HL-60 = test system: HL-60
HOP-62 = test system: HOP-62
HOP-92 = test system: HOP-92
HT-29 = test system: HT-29
Hs-578T = test system: Hs-578T
IGROV-1 = test system: IGROV-1
K562 = test system: K562
KM12 = test system: KM12
M14 = test system: M14
MCF7 = test system: MCF7
MDA-MB-231 = test system: MDA-MB-231
MDA-MB-435 = test system: MDA-MB-435
MDA-N = test system: MDA-N
MOLT-4 = test system: MOLT-4
Malme-3M = test system: Malme-3M
NCI-H226 = test system: NCI-H226
NCI-H23 = test system: NCI-H23
NCI-H460 = test system: NCI-H460
NCI-H522 = test system: NCI-H522
NCI/ADR-RES = test system: NCI/ADR-RES
OVCAR-3 = test system: OVCAR-3
OVCAR-4 = test system: OVCAR-4
OVCAR-5 = test system: OVCAR-5
OVCAR-8 = test system: OVCAR-8
PC-3 = test system: PC-3
RPMI-8226 = test system: RPMI-8226
RXF 393 = test system: RXF 393
SF-268 = test system: SF-268
SF-295 = test system: SF-295
SF-539 = test system: SF-539
SK-MEL-28 = test system: SK-MEL-28
SK-MEL-2 = test system: SK-MEL-2
SK-MEL-5 = test system: SK-MEL-5
SK-OV-3 = test system: SK-OV-3
SN12C = test system: SN12C
SNB-19 = test system: SNB-19
SNB-75 = test system: SNB-75
SR = test system: SR
SW-620 = test system: SW-620
U-251 = test system: U-251
UACC-257 = test system: UACC-257
UACC-62 = test system: UACC-62
UO-31 = test system: UO-31
T47D = test system: T47D
TK-10 = test system: TK-10
LOX IMVI = test system: LOX IMVI

## COc1ccc(/C(=N\Nc2ccccn2)c2ccccn2)cc1
786-0
  GI50: < 0.0162 µM (active)
A498
  GI50: 38.2 µM (inactive)
A549
  GI50: 0.149 µM (active)
ACHN
  GI50: < 0.01 µM (active)
BT-549
  GI50: 0.818 µM (active)
CAKI-1
  GI50: < 0.01 µM (active)
CCRF-CEM
  GI50: < 0.01 µM (active)
COLO 205
  GI50: < 0.01 µM (active)
DU-145
  GI50: 0.29 µM (active)
EKVX
  GI50: < 0.01 µM (active)
HCC 2998
  GI50: 2.93 µM (inactive)
HCT-116
  GI50: < 0.01 µM (active)
HCT-15
  GI50: 0.0103 µM
HL-60
  GI50: < 0.01 µM (active)
HOP-62
  GI50: 0.217 µM (active)
HOP-92
  GI50: < 0.045 µM (active)
HT-29
  GI50: < 0.01 µM (active)
Hs-578T
  GI50: 0.625 µM (active)
IGROV-1
  GI50: 0.0167 µM (active)
K562
  GI50: < 0.0107 µM (active)
KM12
  GI50: 0.16 µM (active)
M14
  GI50: < 0.01 µM (active)
MCF7
  GI50: < 0.01 µM (active)
MDA-MB-231
  GI50: < 0.0193 µM (active)
MDA-MB-435
  GI50: 0.156 µM (active)
MDA-N
  GI50: 0.631 µM (active)
MOLT-4
  GI50: < 0.01 µM (active)
Malme-3M
  GI50: < 0.01 µM (active)
NCI-H226
  GI50: < 0.01 µM (active)
NCI-H23
  GI50: 0.0272 µM (active)
NCI-H460
  GI50: < 0.0287 µM (active)
NCI-H522
  GI50: < 0.01 µM (active)
NCI/ADR-RES
  GI50: < 0.01 µM (active)
OVCAR-3
  GI50: < 0.01 µM (active)
OVCAR-4
  GI50: 11.4 µM (inactive)
OVCAR-5
  GI50: 2.54 µM (inactive)
OVCAR-8
  GI50: < 0.01 µM (active)
PC-3
  GI50: 0.0306 µM (active)
RPMI-8226
  GI50: < 0.0268 µM (active)
RXF 393
  GI50: 2.59 µM (inactive)
SF-268
  GI50: 0.0311 µM (active)
SF-295
  GI50: 0.301 µM (active)
SF-539
  GI50: 0.0627 µM (active)
SK-MEL-28
  GI50: 0.336 µM (active)
SK-MEL-2
  GI50: 3.37 µM (inactive)
SK-MEL-5
  GI50: 0.0303 µM (active)
SK-OV-3
  GI50: 0.107 µM (active)
SN12C
  GI50: < 0.01 µM (active)
SNB-19
  GI50: 0.544 µM (active)
SNB-75
  GI50: 0.414 µM (active)
SR
  GI50: 0.0547 µM (active)
SW-620
  GI50: < 0.01 µM (active)
U-251
  GI50: < 0.0178 µM (active)
UACC-257
  GI50: < 0.01 µM (active)
UACC-62
  GI50: 0.104 µM (active)
UO-31
  GI50: 0.0405 µM (active)

## Cc1ncc(CSC(=N)N)n1Cc1ccccc1
786-0
  GI50: 46 µM (inactive)
A498
  GI50: > 100 µM (inactive)
A549
  GI50: > 100 µM (inactive)
ACHN
  GI50: > 100 µM (inactive)
BT-549
  GI50: > 100 µM (inactive)
CAKI-1
  GI50: 84.1 µM (inactive)
COLO 205
  GI50: 33.1 µM (inactive)
DU-145
  GI50: 22.5 µM (inactive)
EKVX
  GI50: 96.8 µM (inactive)
HCT-116
  GI50: 42.2 µM (inactive)
HCT-15
  GI50: > 100 µM
HOP-62
  GI50: > 100 µM (inactive)
HOP-92
  GI50: > 100 µM (inactive)
HT-29
  GI50: 55.8 µM (inactive)
Hs-578T
  GI50: 95.7 µM (inactive)
IGROV-1
  GI50: > 100 µM (inactive)
K562
  GI50: 66.8 µM (inactive)
KM12
  GI50: > 100 µM (inactive)
M14
  GI50: 48.1 µM (inactive)
MCF7
  GI50: 39.5 µM (inactive)
MDA-MB-231
  GI50: > 100 µM (inactive)
MDA-MB-435
  GI50: 30.7 µM (inactive)
MDA-N
  GI50: 38.2 µM (inactive)
Malme-3M
  GI50: 54.5 µM (inactive)
NCI-H226
  GI50: > 100 µM (inactive)
NCI-H23
  GI50: 65.8 µM (inactive)
NCI-H460
  GI50: 88.3 µM (inactive)
NCI-H522
  GI50: 24.7 µM (inactive)
NCI/ADR-RES
  GI50: > 100 µM (inactive)
OVCAR-3
  GI50: 51.6 µM (inactive)
OVCAR-4
  GI50: 83 µM (inactive)
OVCAR-5
  GI50: > 100 µM (inactive)
OVCAR-8
  GI50: > 100 µM (inactive)
PC-3
  GI50: > 100 µM (inactive)
RPMI-8226
  GI50: 27.5 µM (inactive)
RXF 393
  GI50: 7.78 µM (inactive)
SF-268
  GI50: > 100 µM (inactive)
SF-295
  GI50: 63.7 µM (inactive)
SF-539
  GI50: 43.6 µM (inactive)
SK-MEL-28
  GI50: > 100 µM (inactive)
SK-MEL-2
  GI50: > 100 µM (inactive)
SK-MEL-5
  GI50: 82.6 µM (inactive)
SK-OV-3
  GI50: > 100 µM (inactive)
SN12C
  GI50: 43.5 µM (inactive)
SNB-19
  GI50: > 100 µM (inactive)
SW-620
  GI50: 45.5 µM (inactive)
T47D
  GI50: 26.1 µM (inactive)
TK-10
  GI50: 25.8 µM (inactive)
U-251
  GI50: > 100 µM (inactive)
UACC-257
  GI50: 29.7 µM (inactive)
UACC-62
  GI50: > 100 µM (inactive)
UO-31
  GI50: > 100 µM (inactive)

## Nc1ccc2c(c1)Cc1ccccc1-2
786-0
  GI50: > 100 µM (inactive)
A498
  GI50: 49 µM (inactive)
A549
  GI50: 65 µM (inactive)
ACHN
  GI50: 95.1 µM (inactive)
BT-549
  GI50: 48.2 µM (inactive)
CAKI-1
  GI50: 88.3 µM (inactive)
CCRF-CEM
  GI50: 23.6 µM (inactive)
COLO 205
  GI50: > 100 µM (inactive)
EKVX
  GI50: 37.1 µM (inactive)
HCC 2998
  GI50: > 100 µM (inactive)
HCT-116
  GI50: 81.5 µM (inactive)
HCT-15
  GI50: 62.2 µM
HL-60
  GI50: 36.6 µM (inactive)
HOP-62
  GI50: 60 µM (inactive)
HOP-92
  GI50: 28.9 µM (inactive)
HT-29
  GI50: > 100 µM (inactive)
Hs-578T
  GI50: > 100 µM (inactive)
IGROV-1
  GI50: 89.9 µM (inactive)
K562
  GI50: 84.1 µM (inactive)
KM12
  GI50: 41.5 µM (inactive)
LOX IMVI
  GI50: 80.7 µM (inactive)
M14
  GI50: > 100 µM (inactive)
MCF7
  GI50: > 100 µM (inactive)
MDA-MB-231
  GI50: > 100 µM (inactive)
MDA-MB-435
  GI50: > 100 µM (inactive)
MDA-N
  GI50: > 100 µM (inactive)
MOLT-4
  GI50: 34.7 µM (inactive)
Malme-3M
  GI50: > 100 µM (inactive)
NCI-H226
  GI50: > 100 µM (inactive)
NCI-H23
  GI50: 47.6 µM (inactive)
NCI-H460
  GI50: 69.8 µM (inactive)
NCI/ADR-RES
  GI50: > 100 µM (inactive)
OVCAR-3
  GI50: 45.4 µM (inactive)
OVCAR-4
  GI50: > 100 µM (inactive)
OVCAR-5
  GI50: > 100 µM (inactive)
OVCAR-8
  GI50: > 100 µM (inactive)
PC-3
  GI50: 64.9 µM (inactive)
RXF 393
  GI50: 48.1 µM (inactive)
SF-295
  GI50: > 100 µM (inactive)
SF-539
  GI50: 73.6 µM (inactive)
SK-MEL-28
  GI50: > 100 µM (inactive)
SK-MEL-2
  GI50: 99.8 µM (inactive)
SK-MEL-5
  GI50: 66.2 µM (inactive)
SK-OV-3
  GI50: > 100 µM (inactive)
SN12C
  GI50: > 100 µM (inactive)
SNB-19
  GI50: > 100 µM (inactive)
SNB-75
  GI50: 31.6 µM (inactive)
SR
  GI50: 52.5 µM (inactive)
SW-620
  GI50: > 100 µM (inactive)
TK-10
  GI50: > 100 µM (inactive)
U-251
  GI50: > 100 µM (inactive)
UACC-257
  GI50: > 100 µM (inactive)
UACC-62
  GI50: 59.4 µM (inactive)
UO-31
  GI50: 19.5 µM (inactive)
